“Also recorded” adds a separate entry of the source.
Experiments:
[1] = system: arteriosclerotic plaques (aortic arch, a. carotis, abdominal aorta); test: In vivo gamma camera scintigraphy of WHHL-rabbits; parameters: species or system WHHL-rabbit
Experimental: (§1) The order of the dissected tissues for each B1 and B2 from left to right: thoracic aorta, right denuded a. carotis and left untreated a. carotis.
(§2) 2 mCi (1 ml) of the analog to b) labelled […]was applied to a narcotized WHHL-rabbit (Rompun/Ketavet 1:2) via an ear vein. WHHL-rabbits reveal due a missing or defect LDL receptor high LDL levels in blood and therefore show spontaneous arteriosclerotic vascular changes. During the experimental time span of 5 h after application, static photographs with various exposure times and positions were taken with a gamma camera (Elcint SP4 HR). 5 h after application the rabbit was killed and both an autoradiography and a Sudan III dyeing of the aorta were performed.

[2] = system: plaque as well as non-plaque regions of the aorta; test: Quantitative autoradiography and Sudan-III-dyeing of the removed aorta of WHHL-rabbits after i.v. application; parameters: species or system WHHL-rabbit; conditions: in vivo
Experimental: 74 MBq (2 mCi) of the respective compound according to the invention was applied via an ear vein in a WHHL-rabbit. 5 h p.i. the rabbit was killed and both a quantitative autoradiography and a Sudan-III-dyeing of the removed aorta were performed. The so-determined accumulation of the respective compounds according to the invention in the different tissues is listed in Table 1.
as §2, with “performed. The arteriosclerotic plagues in the region of the aortic arch of the WHHL-rabbits could be depicted with 10 min p.i. in vivo. […] The enrichment factor between the normal and arteriosclerotic wall regions was between 6 and 9, depending on the plaque formation (Sudan III dyeing).” for “performed.”

[3] = system: denuded (arteriosclerotic) right a. carotis; test: Scintigram and autoradiogram of a New Zealand rabbit with right a. carotis denuded by Fogarty-catheter; type: in vivo; conditions: right a. carotis denuded four weeks earlier, 0.5 h after i.v. application of 74 MBq
From the text: as §1

| Substance | Enrichment factor Plaque / Non-plaque [2] | also measured |
| --- | --- | --- |
| Tc-99m-Complex of Asp-Gly-Gly-Cys-Gly-Cys-Phe-(D-Trp)-Leu-Asp-Ile-Ile-Trp [Example 3 c] |  | enrichment activity in vivo in left lateral scintigram ([1]; WHHL-rabbit versus New Zealand control rabbit, 0.5 h after i.v. application of 74 MBq, aortic arch, left a. carotis, abdominal aorta): observable enrichment activity in vivo; also recorded: enrichment activity is visible in vivo |
| Tc-99m-Complex of N-(4-hydroxycarboxy-1-oxo-3-thia-but-1-yl)-Cys-(D-Trp)-Leu-Asp-Ile-Ile-Trp [Example 5 c] | 9 |  |
| Tc-99m-Complex of N-(4-hydroxycarboxy-1-oxo-3-thia-but-1-yl)-Cys-His-Leu-Asp-Ile-Ile-Trp [Example 6 c] | 5 |  |
| Tc-99m-Complex of N-(4-hydroxycarboxy-1-oxo-3-thia-but-1-yl)-Cys-Phe-(D-Trp)-Leu-Asp-Ile-Ile-Trp [Example 4 c] | 14 |  |
| ^99mTc-Complex of Asp-Gly-Gly-Cys-Gly-Cys-D-Trp-Leu-Asp-Ile-Ile-Trp [Example 2 c] |  | in vivo detection of the arteriosclerotic right a. carotis in anterior scintigram [3]: could be detected in vivo |
| ^99mTc-Complex of Asp-Gly-Gly-Cys-Gly-Cys-His-Leu-Asp-Ile-Ile-Trp [Example 1 c] |  | time p.i. at which arteriosclerotic plaques in the region of the aortic arch could be depicted in vivo ([1]; WHHL-rabbit, 2 mCi via ear vein, gamma camera): 10 min |
